Reference: patent US8097656B2, “Nitrogenated trans-stilbene analogs, method for the obtention and medical applications thereof” (Dominion Pharmakine S.L, priority 2005, dated 2012)

Key:
MB16 cells = assay: MB16 hepatic metastasis test after intrasplenic injection; type: in vivo, C57BL/6J mice; conditions: 1 mg/Kg/day nasogastrically; for Reduction of the mean density of hepatic metastases: daily, vs control animals, P<0.01; for No. portal metases/No. sinusoidal metastasis (ratio in brackets) / Percentage of focal points w/cavitation (% of total no. of metastatic focal points) / No. portal metases / No. sinusoidal metastasis / Volume of hepatic metastasis (mm^3) / Hepatic focal point density (No. focal points/100 mm^3) / Metastatic cell proliferation index (% cells positive to Ki67 antigen) / Length of angiogenic vessels (μm): day 12; for No. portal metases/No. sinusoidal metastasis (ratio in brackets): control 1; for Percentage of focal points w/cavitation (% of total no. of metastatic focal points): control 13.5 ± 5.0; for No. portal metases / No. sinusoidal metastasis: control 30; for Volume of hepatic metastasis (mm^3): control 60.0 ± 7.5; for Hepatic focal point density (No. focal points/100 mm^3): control 60.0 ± 11; for Metastatic cell proliferation index (% cells positive to Ki67 antigen): control 71.0 ± 5.0; for Length of angiogenic vessels (μm): control 175.0 ± 10
Experimental: MB16 Hepatic Metastasis Test using C57 BL/6J mice (males 6-8 weeks of age) supplied by IFFA Credo (L'Arbreole, France). The care, maintenance and experimental conditions were carried out in accordance with that which is set forth under EEC Council Directive 86/609 (OJ L 358. 1, Dec. 12, 1987) and the NIH guide for the care and use of laboratory animals (NIH publication 85-23, 1985). In the experiments with the resveratrol and azaresveratrol compounds (Table 1), the animals (10 per group) received 1 mg/Kg/day of the compounds nasogastrically every day up to the time of sacrifice. In the experiments with the JE2:2 compound (FIG. 12), one group of mice (n=10) was given an intraperitoneal injection of 0.5 mg/kg of the JE2:2 compound dissolved in 0.1 ml of PBS. The control group (n=10), was given an intraperitoneal injection of PBS. One hour later, animals were anesthetized and were intrasplenically injected with MB16 cells (3×10^5 cells/mouse). The same treatments, at the same doses, were repeated on days 2, 3, 4, 8, 9, 10 and 11 following tumor injection.
Twelve (12) days later, the livers were removed and processed for the histological study. Firstly, they were fixed in a solution of zinc (0.5 g calcium acetate, 5 g zinc acetate, 5 g zinc chloride and 1000 ml tris buffer, pH 7.4) for 24 hours. Once fixed, they were dehydrated in alcohols of increasing concentrations, and paraffin block were included. Afterward, a minimum of nine (9) cuts 10 μm in thickness were made per liver, leaving a space of 300 μm between every 3 cuts and a 1 mm space between successive groups of 3 cuts. Once the sections had been obtained, they were processed and stained with hematoxylin-eosine. On the one hand, the number, mean diameter, area and position coordinates of each metastasis were quantified by means of an integrated image analysis system (Olympus Microimage 4.0 capture kit) connected to an Olympus BX51TF microscope. With obtained data, metastatic parameters (that is to say, the number of focal points per 100 mm^3 of hepatic tissue) and metastatic volume (that is to say, the volume of liver occupied by metastatic tissue) were calculated as described by Vidal-Vanaclocha et al. [cf. Vidal-Vanaclocha, F., Amézaga, C., Asumendi, A., Kaplanski, G. & Dinarello, C. A. “Interleukin-1 receptor blockade reduces the number and size of murine B 16 melanoma hepatic metastases”, Cancer Research, 1994, vol. 54, pp. 2667-2672]. On the other hand, more cuts were made in the same blocks, and a double marking with CD31 and desmine was performed to calculate the number and length of the angiogenic vessels within the metastases and also to study metastases according to their angiogenic pattern in portal-type expansive metastases (the angiogenic vessels surround the metastases) or sinusoidal type invasive metastases (containing an internal network of angiogenic capillaries). Another parameter that was quantified is the cavitated metastasis percentage. Lastly, immunohistochemical detection of Ki67 antigen was performed to assess the number of tumor cells which proliferated per unit of tumor surface.
To this end, the MB16 cells were intrasplenically injected in C57BL/6J mice (3×10^5 viable cells per animal resuspended in endotoxin-free sterile saline solution), 12 days after which the capacity thereof of development metastasis was determined.
One group of mice (n=7) were administered an intraperitoneal injection of JE2:2 (2.5 mg/kg) 1′ hour prior to tumor cell injection, and the same dose was repeated on days 2, 3, 4, 8, 9, 10 and 11 in following thereto. The group of control mice (n=7) was administered PBS.

MA375 cells = assay: MA375 cell adhesion to immobilized VCAM-1 substrates; type: cell-based, human; conditions: 2.5 μM; for Adhesion of MA375 cells with H2O2 to immobilized VCAM-1 (% cells adhered): 10 μM H2O2, control 21.0 ± 4, H2O2 alone 41.3 ± 4.2; for Adhesion of MA375 cells treated with IL-18 to immobilized VCAM-1 (% cells adhered): control 21.0 ± 4, IL-18 alone 31.5 ± 3.2
Experimental: MB16 and MA375 cell adhesion to immobilized VCAM-1 substrates. The MB16 and MA375 cell adhesion tests were conducted on immobilized VCAM-1 substrates (2 μg/ml of recombinant human VCAM-1, R&D Systems, Minneapolis, Minn.) on 96-well plates. To avoid non-specific attachment to the plastic, 0.5% BSA dissolved in PBS was added to the wells for 2 hours at ambient temperature prior to conducting the adhesion test. The melanoma cells were preincubated with 2.5 μM of the compounds to be tested (azaresveratrol, see Table 2; JE1:2, JE2:1 and JE2:2 see FIG. 2; JEM2:2-01 and JEM2:1-02 see FIG. 7; YEF02, YEF03, YEF07, YEF05B, YEF07B and YEF05H. see FIG. 9) for 30 minutes, to which 10 μM of hydrogen peroxide or 10 ng/ml of IL-18 were added, respectively for a further 24 hours. Afterward, the cells were washed and marked with the BCECF-AM fluorescent probe (carboxyfluorescein, 2′,7′-bis-(2-carboxy-ethyl)-5-(6)carboxyfluorescein aminoxymethyl ester). Thirty minutes later, a washing process was performed to remove the excess fluorochromium, the number of viable cells being calculated by means of the trypan blue exclusion test and (5×10^4 cells/well) being added to the 96-well plate. The co-culture plates were incubator-incubated at 37° C. for 1 hours. The percentage of cellular adhesion was calculated by measuring the fluorescence emitted by the adhered cells (obtained after washing the plate) with regard to the fluorescence emitted by the total number of cells added. The results in the figures are given in values related to the adhesion percentages of the untreated melanoma cells.

Row | Structure (SMILES) | Reduction of the mean density of hepatic metastases (MB16 cells) [%] | No. portal metases/No. sinusoidal metastasis (ratio in brackets) (MB16 cells) | Percentage of focal points w/cavitation (% of total no. of metastatic focal points) (MB16 cells) [%] | No. portal metases (MB16 cells) | No. sinusoidal metastasis (MB16 cells) | Volume of hepatic metastasis (mm^3) (MB16 cells) | Hepatic focal point density (No. focal points/100 mm^3) (MB16 cells) | Metastatic cell proliferation index (% cells positive to Ki67 antigen) (MB16 cells) [%] | Length of angiogenic vessels (μm) (MB16 cells) | Adhesion of MA375 cells with H2O2 to immobilized VCAM-1 (% cells adhered) (MA375 cells) | Adhesion of MA375 cells treated with IL-18 to immobilized VCAM-1 (% cells adhered) (MA375 cells)
1 | Oc1ccc(C=Cc2cc(O)cc(O)c2)cc1 [resveratrol, reference compound] | 50 | 3 | 41.5 ± 11 | 22.5 | 7.5 | 18.7 ± 7.5 | 30.0 ± 11 | 40.0 ± 5.0 | 88.0 ± 23 | 6.5 ± 0.5 | 5.5 ± 0.4
2 | Oc1ccc(/N=C/c2cc(O)cc(O)c2)cc1 [azaresveratrol, 5-((E)-(4-Hydroxyphenylimino)methyl)benzene-1,3-diol] | 46 | 4.09 | 40.0 ± 10 | 22.5 | 5.5 | 24.0 ± 9.0 | 28.0 ± 10 | 35.0 ± 10 | 88.0 ± 21 | 4.5 ± 0.3 | 5.0 ± 0.3
